A value given as a limit tells only on which side of the number the result lay.

What is called IC50 is the concentration that gives 50% inhibition. A word on the EC50: it is the midpoint of the concentration-response curve. Usually inhibition stands for how much of the control response was suppressed. As usually defined, the efflux ratio is a quotient of directional permeabilities that is used to spot active efflux.

For series [1], the target named is T1, Eukaryotic initiation factor 4A-I (Homo sapiens, UniProt P60842). In words: Inhibition of eIF4A (unknown origin) assessed as inhibition of translation of RNA featuring short 5'-UTR of tubulin.
T1 sequence (P60842 whole entry): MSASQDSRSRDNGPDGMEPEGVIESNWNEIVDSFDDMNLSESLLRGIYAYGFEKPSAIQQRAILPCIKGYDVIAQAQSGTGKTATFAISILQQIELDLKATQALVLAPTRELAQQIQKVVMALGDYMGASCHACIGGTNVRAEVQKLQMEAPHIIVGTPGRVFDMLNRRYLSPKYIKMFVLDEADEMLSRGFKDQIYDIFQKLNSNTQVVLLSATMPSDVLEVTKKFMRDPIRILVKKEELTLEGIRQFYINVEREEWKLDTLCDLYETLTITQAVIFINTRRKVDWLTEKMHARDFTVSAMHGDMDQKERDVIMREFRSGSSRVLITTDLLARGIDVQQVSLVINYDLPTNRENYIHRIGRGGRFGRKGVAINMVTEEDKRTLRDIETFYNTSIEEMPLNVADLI
In series [2] the test system is MDA-MB-231. The experiment in a line: Antiproliferative activity against human MDA-MB-231 cells. The format is functional, cell-based.
The target of series [3] is T1, Eukaryotic initiation factor 4A-I. The experiment in a line: Inhibition of eIF4A (unknown origin) assessed as inhibition of translation of RNA featuring highly structured 5'-UTR of c-Myc.
A further series is filed under the species Homo sapiens. In words: Selectivity ratio of IC50 for inhibition of eIF4A (unknown origin) assessed as inhibition of translation of RNA featuring short 5'-UTR of tubulin to IC50 for inhibition of eIF4A (unknown origin) assessed as inhibition of translation of RNA featuring highly structured 5'-UTR of c-Myc.
For series [4], the system named is MDA-MB-231. The experiment in a line: Antiproliferative activity against human MDA-MB-231 cells assessed as inhibition of cell viability incubated for 72 hrs by CellTiter-Glo assay. The format is functional, cell-based. The conditions noted are these: MDA-MB-231, 72 h. (In general: ATP-based viability assays read luminescence as a measure of living cells.)
Series [5] is described as follows: Metabolic stability of the compound in mouse liver microsomes assessed as parent compound remaining measured after 30 mins. The format is ADME, Microsome. The conditions noted are these: for remaining at 0.5 h: liver microsomes, read-out: Stabilty.
Series [6] is described as follows: Metabolic stability of the compound in rat liver microsomes assessed as parent compound remaining measured after 30 mins. The format is ADME, Microsome. The conditions noted are these: read-out: Stabilty. Background: Microsomes from liver hold many membrane-bound enzymes, among them those of drug oxidation.
Another series addresses hERG (KCNH2) (Homo sapiens, UniProt Q12809). In words: Inhibition of human ERG at 10 uM by automated patch method relative to control.
Series [7] is described as follows: Metabolic stability of the compound in human liver microsomes assessed as parent compound remaining measured after 30 mins. The format is ADME, Microsome. The conditions noted are these: read-out: Stabilty.
A short description of series [8]: Permeability of the compound across apical to basolateral side in human Caco-2 cells. The format is ADME, cell-based. The conditions noted are these: read-out: permeability. For orientation: Caco-2 monolayers are a common model of the intestinal barrier.
Series [9] is described as follows: Efflux ratio of permeability in human Caco-2 cells. The format is ADME, cell-based.

hERG (KCNH2), sequence (Q12809 whole entry): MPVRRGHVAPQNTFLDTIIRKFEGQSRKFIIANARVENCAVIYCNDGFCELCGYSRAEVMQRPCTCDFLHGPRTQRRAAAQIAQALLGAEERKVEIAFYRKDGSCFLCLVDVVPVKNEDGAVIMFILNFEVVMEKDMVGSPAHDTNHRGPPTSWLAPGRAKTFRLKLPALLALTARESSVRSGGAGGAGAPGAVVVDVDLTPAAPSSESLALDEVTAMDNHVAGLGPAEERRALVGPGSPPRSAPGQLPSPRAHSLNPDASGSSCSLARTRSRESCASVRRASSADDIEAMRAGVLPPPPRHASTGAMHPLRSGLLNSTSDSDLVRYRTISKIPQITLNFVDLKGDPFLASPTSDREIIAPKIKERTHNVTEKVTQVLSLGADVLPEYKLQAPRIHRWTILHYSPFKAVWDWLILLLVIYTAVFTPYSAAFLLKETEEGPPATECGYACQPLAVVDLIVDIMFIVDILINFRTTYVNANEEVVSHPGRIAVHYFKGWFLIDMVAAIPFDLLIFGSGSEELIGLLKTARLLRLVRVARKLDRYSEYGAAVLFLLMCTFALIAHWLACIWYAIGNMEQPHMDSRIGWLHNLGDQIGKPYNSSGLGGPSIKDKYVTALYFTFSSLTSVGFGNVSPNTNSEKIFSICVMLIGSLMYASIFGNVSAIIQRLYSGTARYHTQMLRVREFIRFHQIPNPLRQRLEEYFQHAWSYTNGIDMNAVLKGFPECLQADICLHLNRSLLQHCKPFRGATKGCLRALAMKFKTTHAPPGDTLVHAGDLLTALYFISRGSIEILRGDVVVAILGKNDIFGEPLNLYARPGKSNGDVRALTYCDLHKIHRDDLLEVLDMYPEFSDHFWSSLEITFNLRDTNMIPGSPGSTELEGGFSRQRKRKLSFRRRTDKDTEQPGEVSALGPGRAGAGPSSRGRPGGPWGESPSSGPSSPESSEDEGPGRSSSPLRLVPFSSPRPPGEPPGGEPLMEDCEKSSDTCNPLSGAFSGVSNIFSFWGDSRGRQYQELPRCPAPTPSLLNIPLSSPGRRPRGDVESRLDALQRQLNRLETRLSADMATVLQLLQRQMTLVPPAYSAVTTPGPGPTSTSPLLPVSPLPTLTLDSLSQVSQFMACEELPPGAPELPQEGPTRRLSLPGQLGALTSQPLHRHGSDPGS

In the case of `COc1cncc2c1[C@]1(O)[C@@H](CNC3COC3)[C@H](CO)[C@@H](c3ccccc3)[C@]1(c1ccc(Br)cc1)O2` (racemic), the results for the IC50 in [1] and in [3] were 11 nM and 2.3 nM, respectively. Besides, the midpoint of the response in the series on MDA-MB-231 [2], the EC50, lay at 8 nM. In the series listed under Homo sapiens, the Ratio IC50 is 4.8.
With `N#Cc1ccc([C@@]23Oc4cc(Cl)cnc4[C@]2(O)[C@@H](CN)C[C@H]3c2ccccc2)cc1` (racemic), the EC50 in the series with MDA-MB-231 [4] amounted to 28 nM.
On to `COc1cncc2c1[C@]1(O)[C@@H](CN3CCOCC3)[C@H](CO)[C@@H](c3ccccc3)[C@]1(c1ccc(Br)cc1)O2` (racemic), for which the remaining at 0.5 h in series [5] is 1%; in [6] it was 0%; in series [7], 6%. Further, the IC50 in series [1] came to 32 nM; in [3], 10 nM. The same compound displayed an EC50 in the series on MDA-MB-231 [2] of 39 nM. This compound came in with an inhibition at 10 µM at hERG (KCNH2) of 12%. Besides, in the series listed under Homo sapiens, the Ratio IC50 stood at 3.2.
For `COc1cncc2c1[C@]1(O)[C@@H](CN)C[C@@H](c3ccccc3)[C@]1(c1ccc(Br)cc1)O2` (racemic), the Stabilty in [5] (microsomes, 0.5 h) was 123%. Moreover, in [8], the Papp A→B was determined as 0.43 ×10⁻⁶ cm/s. The IC50 in [1] is 21 nM; in [3], 5 nM. Also, the remaining at 0.5 h in [6] turned out to be 58%; in [7], 99%. In the series on MDA-MB-231 [2], this compound yielded an EC50 of 15 nM. The Ratio IC50 in the series filed under Homo sapiens worked out at 4.2. The efflux ratio in [9] was found to be 13.
Turning to `COc1cncc2c1[C@]1(O)[C@@H](CNCc3ccnn3C)[C@H](CO)[C@@H](c3ccccc3)[C@]1(c1ccc(C#N)cc1)O2` (racemic), the remaining at 0.5 h in series [5] was 1%; in [6] it was 2%; in series [7], 1%. Also, the Papp A→B in series [8] came to 0.19 ×10⁻⁶ cm/s. The same compound yielded a half-maximal effective concentration (EC50) with MDA-MB-231 [2] of 38 nM. For the same compound, in series [9], the efflux ratio was determined as 76.
Consider `COc1cncc2c1[C@]1(O)[C@@H](CN3CC4(COC4)C3)[C@H](CO)[C@@H](c3ccccc3)[C@]1(c1ccc(C#N)cc1)O2` (racemic), for which the remaining at 0.5 h is 67% in [5], 48% in [6] and 92% in [7]. The Papp A→B in series [8] came to 0.19 ×10⁻⁶ cm/s. It took 19 nM to reach a half-maximal effect in the series with MDA-MB-231 [2] (EC50). The efflux ratio in series [9] was 86.
On to `COc1cncc2c1[C@]1(O)[C@@H](CNCC(F)F)[C@H](CO)[C@@H](c3ccccc3)[C@]1(c1ccc(C#N)cc1)O2` (racemic), for which the remaining at 0.5 h in series [5] stood at 1%; in series [6], 0%; in series [7] it was 19%. The Papp A→B in series [8] is 0.82 ×10⁻⁶ cm/s. In the series on MDA-MB-231 [2], the response was half-maximal at 21 nM (EC50). 10 µM produced 27% inhibition at hERG (KCNH2). Moreover, the efflux ratio in series [9] is 6.7.
Regarding `COc1cncc2c1[C@]1(O)[C@@H](CN)[C@H](CO)[C@@H](c3ccccc3)[C@]1(c1ccc(Br)cc1)O2` (racemic), the remaining at 0.5 h is 107% in [5], 95% in [6] and 102% in series [7]. Also, the Papp A→B in series [8] was 0.04 ×10⁻⁶ cm/s. In addition, the IC50 worked out at 89 nM in series [1] and 25 nM in series [3]. Also, the response in the series on MDA-MB-231 [2] was half-maximal at 48 nM (EC50). The inhibition at 10 µM against hERG (KCNH2) is 37%. In the series listed under Homo sapiens, the Ratio IC50 stood at 3.6. In addition, the efflux ratio in series [9] was found to be 61.
As to `COc1cncc2c1[C@]1(O)[C@@H](CN)[C@H](CO)[C@@H](c3ccccc3)[C@]1(c1ccc(C#N)cc1)O2` (racemic), the remaining at 0.5 h worked out at 83% in [5], 97% in [6] and 95% in [7]. In series [8], the Papp A→B was less than 0.07 ×10⁻⁶ cm/s. Besides, in the series with MDA-MB-231 [2], a half-maximal response (EC50) required 106 nM. The inhibition at 10 µM at hERG (KCNH2) was less than 10%. The efflux ratio in series [9] is greater than 4.
Consider `COc1cncc2c1[C@]1(O)[C@@H](CN(C)C)[C@H](CO)[C@@H](c3ccccc3)[C@]1(c1ccc(C#N)cc1)O2` (racemic), for which the results for the remaining at 0.5 h in series [5], in series [6] and in series [7] were 67%, 61% and 77%, respectively. In addition, in series [8], the Papp A→B was found to be 0.4 ×10⁻⁶ cm/s. The EC50 in the series on MDA-MB-231 [2] amounted to 8 nM. On hERG (KCNH2), the inhibition at 10 µM came out at 79%. Also, the efflux ratio in [9] was found to be 33.
Turning to `COc1cncc2c1[C@]1(O)[C@@H](CN)C[C@@H](c3ccccc3)[C@]1(c1ccc(C#N)cc1)O2` (racemic), the remaining at 0.5 h in [5] worked out at 108%; in series [6], 85%; in [7], 102%. The Papp A→B in series [8] came out at 0.13 ×10⁻⁶ cm/s. Further, the results for the IC50 in [1] and in [3] were 22 nM and 5.6 nM, respectively. The EC50 with MDA-MB-231 [2] came out at 11 nM. This compound displayed an inhibition at 10 µM on hERG (KCNH2) of 54%. The Ratio IC50 in the series listed under Homo sapiens worked out at 3.9. For the same compound, the efflux ratio in [9] worked out at 58.
Regarding `COc1cncc2c1[C@]1(O)[C@@H](CN3CCOCC3)[C@H](CO)[C@@H](c3ccccc3)[C@]1(c1ccc(C#N)cc1)O2` (racemic), the remaining at 0.5 h in series [5] worked out at 41%; in [6], 27%; in [7], 51%. Moreover, in [8], the Papp A→B stood at 2.2 ×10⁻⁶ cm/s. Further, the EC50 in the series on MDA-MB-231 [2] is 81 nM. The same compound showed an inhibition at 10 µM at hERG (KCNH2) of less than 10%. In series [9], the efflux ratio was 7.
In the case of `COc1cncc2c1[C@]1(O)[C@@H](CNC3COC3)[C@H](CO)[C@@H](c3ccccc3)[C@]1(c1ccc(C#N)cc1)O2` (racemic), the figures for the remaining at 0.5 h in [5], in [6] and in [7] were 24%, 18% and 61%, respectively. Further, the Papp A→B in series [8] was determined as 0.73 ×10⁻⁶ cm/s. The compound also displayed an EC50 with MDA-MB-231 [2] of 29 nM. This compound gave an inhibition at 10 µM at hERG (KCNH2) of less than 10%. Besides, in series [9], the efflux ratio turned out to be 12.

For the origin of these results see ChEMBL document CHEMBL4834481, “1-Aminomethyl SAR in a novel series of flavagline-inspired eIF4A inhibitors: Effects of amine substitution on cell potency and in vitro PK properties” (Bioorg Med Chem Lett, 2021).
